According to a melting point compilation (Tetko et al.; mined from patent text by program, amines drawn as free bases though some values may be those of a salt):

SMILES | melting point [°C]
CCOC(=O)c1c(C)cc2c(c1C)c(=O)n(-c1ccccc1Cl)c(=O)n2CC(=O)N(CC)CC | 228 to 229
CCOC(=O)CON(C(=S)Nc1cc(Cl)ccc1C)C(C)C | 83 to 85
C=CCN1CCC2(CC1)CSC1=C(O2)c2ccccc2C(=O)C1=O | 166 to 168
CC(C)(C(=O)O)c1ccc(C(=O)Nc2cn3cc(-c4ccsc4)ccc3n2)cc1 | 304 to 306
NS(=O)(=O)c1cccc(-c2cc(-c3nc(-c4ccc(Cl)c(Cl)c4)cc(C(F)(F)F)n3)ccn2)c1 | 247
Cc1ccc(CN2C(=NCCCn3ccnc3)c3cccc4cccc2c34)cc1 | 94 to 95
O=c1[nH]c2cc(-n3cnc4ccccc43)c([N+](=O)[O-])cc2[nH]c1=O | > 300
CC(=O)Nc1cccc(-n2nc(C#N)c(=O)n(Cc3ccc(Cl)cc3)c2=O)c1 | 196
CC(=O)Nc1cc(C(=O)c2ccc(S(=O)(=O)CCO)c(NC(C)=O)c2)ccc1S(=O)(=O)CCO | 189 to 192
C=CCn1cc(Cl)cnc1=O | 130 to 131
C#Cc1ccc(C(=O)NC(C#N)OCC)cc1 (stereo not drawn) | 104 to 106
CCCn1c(-c2ccccc2)nc2cc(C#N)c(C#N)cc21 | 183 to 185
CS(=O)(=O)Nc1ccc(CCc2n[nH]c3c2c(=O)n(-c2ccccc2)c2ncccc32)cc1 | 284 to 285
O=C(O)Cc1ccc(Cc2nc3c(F)c(F)cc(F)c3s2)cc1 | 173 to 175
Clc1nc2ncsc2nc1Cl | 124 to 125
CC(C)(C)c1ccc(N2CCOCC2)c(NC(=O)C(F)(F)F)c1 | 89 to 90
CCc1nn(Cc2cccnn2)c2c(=O)[nH]c(-c3cc(S(C)(=O)=O)ccc3OCC(C)C)nc12 | 231 to 234
CCN(CCO)CC(C)N1c2ccccc2Sc2ccc(C(=S)NCc3ccccc3)cc21 (racemic) | 154
O=C(O)c1nc2c(=O)[nH]c3cc(C(F)(F)F)ccc3n2c1CNc1ccc2c(c1)OCO2 | > 250
COc1cc([N+](=O)[O-])c(F)cc1Cl | 69 to 70
N#CCOC(=O)c1ccc(C(c2ccccc2)c2ccccc2)cn1 | 95 to 98

SMILES | melting point [°C]
Cc1cc(C(C)(C)C)c(OP2OCCN2C(C)(C)C)c(C(C)(C)C)c1 (stereo not drawn) | 105 to 107
COc1ccc2cc(-n3c(=O)[nH]c4ccccc43)cc(C)c2n1 | 280
CCOC(CNC(=S)Nc1cccc2nc(C)ccc12)OCC | 181 to 185
C[C@@H](Nc1ncnc2cc(F)c([N+](=O)[O-])cc12)c1ccccc1 | 203
C=COCCn1c(CN2CCN(C)CC2)nc2ccccc21 | 65.5 to 67.5
NC(=O)c1nn(S(=O)(=O)c2ccccc2)c2ccccc12 | 208 to 210
CC(=O)N(O)C(C)c1cn(C)c2ccccc12 (stereo not drawn) | 106 to 108
COc1cc(N(C)C)ccc1C=Nc1cc(Cl)c(N=CN(C)C)c(Cl)c1 | 137 to 139
O=C1c2cc(Br)sc2SCCN1CCCCCl | 81 to 89
N#Cc1c[nH]c(C(F)(F)F)c1-c1ccc(Cl)cc1 | 114 to 115
N#CC1(c2ccc(Cl)cc2)CCC(=O)CC1 | 94.5 to 97
CCCC(O)(CCC)c1c2c(nn1C)N(c1c(C)cc(C)cc1Cl)CCC2 | 129 to 130
Cn1c(-c2ccc(-c3ccccc3)cc2)cnc1[C@H](Cc1ccccn1)N(C=O)c1cc2cc(Br)ccc2o1 | 180 to 182
N#Cc1ccc(-c2ccc(-c3ccn([C@H](CC(=O)O)C(=O)N[C@H](CO)Cc4ccccc4)c3)cc2)cc1 | 189 to 192
CC1(C)C=C(C(=O)NCC2COC(C)(C)O2)C(C)(C)N1 (stereo not drawn) | 55 to 57
CCCOCCOC(=O)C1=C(C)NC(C)=C([N+](=O)[O-])C1c1cccc([N+](=O)[O-])c1 (stereo not drawn) | 161
CC(C)(C)c1ccc2c(c1)CCC1=C2CCC(=O)N1 | 265 to 268
CN(C)C(=NS(=O)(=O)c1ccc(Cl)cc1)N1CC(c2ccccc2)C(c2ccc(Cl)cc2)=N1 (stereo not drawn) | 182
C1=C(c2cccs2)CCN(CCCSc2ccncc2)C1 | 86 to 87
O=C(CC12CC3CC(CC(C3)C1)C2)Nc1ccc2[nH]ncc2c1 | 265
CNCC1(O)c2ccccc2C=Cc2ccccc21 | 112 to 114

SMILES | melting point [°C]
CCCCCN(CCC12CC3CC(CC(C3)C1)C2)C(=O)NCCNc1ccncc1 | 134
O=C(c1cccs1)c1cnn2c(-c3cccc(NC(=S)Nc4ccccc4)c3)ccnc12 | 124 to 126
CCCCC(O)c1cccc(O)c1 (stereo not drawn) | 120 to 122
CCOC(=O)c1cc2cc(C#N)ccc2s1 | 138 to 139
O=C(Cn1c2c(c(=O)n3nc(-c4ccccc4)cc13)CN(C1CCCCC1)C2=O)c1ccccc1 | 164 to 167
CCCCCCCCC1(CCCCCCCC)c2cc(Cl)ccc2-c2ccc(Cl)cc21 | 50 to 51
COc1ccc(C(=O)NC(=O)NC2CN3CCC2CC3)cc1 (stereo not drawn) | 166 to 168
CCCC1=C(C(=O)OCC)C(C)(c2ccccc2)c2c[nH]nc2N1 (stereo not drawn) | 207
O=CN1CCC(Oc2c(F)c(F)c(F)c(F)c2F)(c2ccccc2)CC1 | 118 to 119
Cc1nc(C)c(Cl)c(NCc2nccc(SCCCSc3ncccn3)c2C)n1 | 158 to 159
O=c1cnn(-c2cc(Cl)c(Cc3ccc(Cc4ccccc4)cc3)c(Cl)c2)c(=O)[nH]1 | 164 to 165
CC(C)C[C@H](NS(=O)(=O)c1ccc(N(C)C)cc1)C(=O)N[C@H](C#N)CCc1ccccc1 | 46 to 48
COc1cc(OC)nc(NC#N)n1 | 202
O=C(C=Cc1ccccc1)c1ccc(N2CCN(c3ccncc3)CC2)cc1 | 208 to 210
CCOC(=O)C(C(=O)c1ccc(C#N)cc1)C1c2ccccc2Oc2ccccc21 (stereo not drawn) | 141
Nc1c(Cl)ccc2c1NCCC2=O | 105 to 109
CN(N=Cc1cnc[nH]1)C(=O)c1[nH]c2ccccc2c1-c1ccccc1 | 248 to 250
CCOC(=O)C1=C[C@@H](OC(CC)CC)[C@@H](NC(C)=O)[C@H](N=[N+]=[N-])[C@@H]1O | 112 to 115
O=c1[nH]c2ccccc2n1CCCCCCCl | 80 to 84

Second part, the compound after the results:

melting point [°C] | SMILES
122 | Fc1ccc(-c2cnc3ccccc3n2)cc1
180 to 185 | c1ccc2c(c1)c(-c1cc3nccnc3[nH]1)cn2CCCN1CCOCC1
230 to 231 | CCOC(=O)c1ccc(-c2nc3ccc(C)cn3c2CNC(=O)CC(C)C)cc1
> 230 | NS(=O)(=O)c1ccc(NN=C2C(=O)Nc3ccc(C(=O)NCCCO)cc32)cc1
141 to 142 | CCC(O)(c1ccc(O)cc1O)c1ccccc1OC (stereo not drawn)
212 to 215 | NC(=O)Cc1cccc(C(=O)c2ccc(Cl)cc2)c1N
116 to 118 | COCCc1nc2ccccn2c(=O)c1-c1ccc(Cl)cc1
208 to 210 | O=C(Nc1cccc(Cl)c1C(=O)O)c1ccccc1
126 to 128 | O=C(O)CN1CCC(OC(c2ccc(F)cc2)c2ccc(F)cc2)CC1
110 to 112 | CN(C)c1ccc(C(=O)CCCN2CCC(=C(c3ccccc3)c3ccccc3)CC2)cc1
200 | COc1cc(S(C)(=O)=O)ccc1-n1nc(C(F)(F)F)cc1-c1ccc(-c2ccco2)cc1
176 to 178 | CCCC(=O)c1cnc2cc(CO)ccc2c1Nc1ccccc1C
136 to 138 | NCCCCCCOc1ccccc1C(=O)Nc1ccc(C(=O)N2CCCCc3ccccc32)cc1
186 to 193 | Nc1ccccc1/C=C/C(=O)CC(=O)/C=C/c1ccc(O)cc1
122 to 124 | O=C(Nc1c(F)cc(F)cc1F)N(Cc1cc2ccccc2c2ccccc12)C1CCCCC1
220 to 222 | O=C1NC(Cc2ccc(OCc3ccccc3)cn2)C(=O)NC1Cc1ccc(F)cc1 (stereo not drawn)
253 | O=S1(=O)c2cccc3cccc(c23)N1CCCN1CCC(n2c(O)nc3ccccc32)CC1
199 to 202 | COc1cc(OC)nc(N2CCN(Cc3ccc(C(C)(C)NC(C)=O)cc3)CC2)n1
255 to 257 | Cc1c(F)c(F)cc2c1c(=O)c(C(=O)O)cn2-c1ccc(F)cc1

melting point [°C] | SMILES
131 to 132 | COc1cc(CN2CCC(=O)C(C(c3ccccc3)c3ccccc3)C2)ccc1O (stereo not drawn)
65 to 69 | COC1(c2ccc(Sc3ccc4c(c3)OCC(=O)N4C)s2)CCOCC1
178 to 179 | COc1cc2c(cc1OC)CC(N1CC(O)CC1=O)CC2 (stereo not drawn)
219 | CNC(=S)N1CCCC(N2CCC(Nc3nc4ccccc4n3Cc3ccc(F)cc3)CC2)C1 (stereo not drawn)
139 to 140 | CCCCOc1c(CNC(=O)OC(C)(C)C)n(CC2CC2)c(=O)c2ccc(C(=O)OC)cc12
198 to 200 | CN1CCN(CC(=O)N2c3ccccc3C(=O)Nc3cccnc32)CC1
160 to 162 | CN(C)CC1CCCCN1CCCNC(=O)N1c2ccccc2C(=O)Nc2cccnc21 (stereo not drawn)
97 to 105 | CCN(CC)C(=O)CC(=O)CC(=O)/C=C/c1c(C2CC2)nc2ccccc2c1-c1ccc(F)cc1
160 | CCC(=O)C(O)(Cc1ccc(C)cc1)c1ccc(N2CCOCC2)cc1 (stereo not drawn)
73 to 98 | Nc1nc2ccccc2c2c1ncn2CCCCNC(=O)COc1ccc(C(=O)c2ccccc2)cc1
153 to 157 | CCn1c(C(C)NS(=O)(=O)c2ccc(Cl)c(Cl)c2)cnc1Oc1ccc(Cl)cc1 (stereo not drawn)
87 to 90 | Nc1ccnn1-c1c(F)cc(C(F)(F)F)cc1Cl
151 to 153 | COC(=O)CCCc1cc2cc(Cl)ccc2n1S(=O)(=O)c1ccc2nc(C)sc2c1
99 to 100 | CC(C)Oc1ccc(CCCOc2cc(CCC(=O)O)n(Cc3ccccc3)n2)c(Oc2ncc(C(F)(F)F)cc2Cl)c1
90 | C[C@@](O)(CO)COc1ccc(Br)cc1
152 to 154 | CCOC(=O)c1cc2c(C=O)c(OC[C@H]3CO3)ccc2[nH]1
77 to 79 | O=C1c2ccccc2C(O)N1CCCCCCl (stereo not drawn)
146 to 148 | CO[C@@H]1CN(CCCOc2ccc(F)cc2)CC[C@@H]1NC(=O)c1cc(Cl)c(N)cc1O (relative stereo)
